# Measurements reported in ChEMBL document CHEMBL1156029, “The discovery of thienopyridine analogues as potent IkappaB kinase beta inhibitors. Part II” (Bioorg Med Chem Lett, 2009).
# Target: T1, Inhibitor of nuclear factor kappa-B kinase subunit beta (Homo sapiens, UniProt O14920)
# T1 sequence (O14920 whole entry): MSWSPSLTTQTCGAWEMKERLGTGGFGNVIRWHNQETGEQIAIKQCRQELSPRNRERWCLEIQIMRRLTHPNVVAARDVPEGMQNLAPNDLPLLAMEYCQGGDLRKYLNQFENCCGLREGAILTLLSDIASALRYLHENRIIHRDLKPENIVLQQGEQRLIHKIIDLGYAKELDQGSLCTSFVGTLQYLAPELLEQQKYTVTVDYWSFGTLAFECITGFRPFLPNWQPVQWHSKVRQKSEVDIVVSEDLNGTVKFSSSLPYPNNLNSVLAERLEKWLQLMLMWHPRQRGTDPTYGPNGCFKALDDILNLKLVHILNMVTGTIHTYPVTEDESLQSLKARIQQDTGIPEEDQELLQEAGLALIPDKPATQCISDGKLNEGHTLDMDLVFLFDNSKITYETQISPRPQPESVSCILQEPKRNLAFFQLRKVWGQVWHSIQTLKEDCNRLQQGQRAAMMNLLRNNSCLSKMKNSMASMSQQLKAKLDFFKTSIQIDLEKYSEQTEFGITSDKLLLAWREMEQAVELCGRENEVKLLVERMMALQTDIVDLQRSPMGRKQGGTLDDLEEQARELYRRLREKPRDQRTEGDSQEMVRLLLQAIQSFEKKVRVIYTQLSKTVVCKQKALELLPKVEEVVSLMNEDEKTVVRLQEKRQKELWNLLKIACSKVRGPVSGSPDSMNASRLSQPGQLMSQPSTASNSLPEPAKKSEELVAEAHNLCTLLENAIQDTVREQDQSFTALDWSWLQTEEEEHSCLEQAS
# Test: Inhibition of Flag epitope-tagged IKK-beta preincubated for 5 mins by scintillation proximity assay
row,Compound,IC50 [nM]
1,CCCc1cc(N2CCN(C)CC2)nc2sc(C(N)=O)c(N)c12,520
2,CCCc1cc(N2CCC(OC)CC2)nc2sc(C(N)=O)c(N)c12,680
3,Cc1cc(OCCO)nc2sc(C(N)=O)c(N)c12,6600
4,CCCc1cc(N2CCC(NS(C)(=O)=O)CC2)nc2sc(C(N)=O)c(N)c12,98
5,Cc1cc(OCCN)nc2sc(C(N)=O)c(N)c12,2900
6,Cc1cc(OCCCO)nc2sc(C(N)=O)c(N)c12,5100
7,CCCc1cc(N2CCC(C(=O)OC)CC2)nc2sc(C(N)=O)c(N)c12,7800
8,Cc1cc(-c2cccs2)c2c(N)c(C(N)=O)sc2n1,2000
9,Cc1ccc(-c2cc(C)nc3sc(C(N)=O)c(N)c23)cc1,8500
10,CCCc1cc(N2CC[C@H](O)C2)nc2sc(C(N)=O)c(N)c12,1450
11,CCOc1ccnc2sc(C(N)=O)c(N)c12,2000
12,Cc1cc(-c2ccccc2)c2c(N)c(C(N)=O)sc2n1,7400
13,CCCc1cc(N2CC[C@H](N)C2)nc2sc(C(N)=O)c(N)c12,590
14,CCCc1cc(N2CC[C@@H](O)C2)nc2sc(C(N)=O)c(N)c12,1950
15,CCCc1cc(N2CCN(C(N)=O)CC2)nc2sc(C(N)=O)c(N)c12,150
16,Cc1cc(C)c2c(N)c(C(N)=O)sc2n1,2700
17,COc1ccnc2sc(C(N)=O)c(N)c12,4700
18,Cc1cc(NCCO)nc2sc(C(N)=O)c(N)c12,5800
19,Cc1ccc2c(N)c(C(N)=O)sc2n1,12700
20,Cc1cc(N2CCCCC2)nc2sc(C(N)=O)c(N)c12,2400
21,Cc1cc(OCCCN)nc2sc(C(N)=O)c(N)c12,> 50000
22,Cc1cc(-c2ccc(Cl)cc2)c2c(N)c(C(N)=O)sc2n1,14000
23,"CCCc1cc(N2CCC(O)C(C)(C)C2)nc2sc(C(N)=O)c(N)c12 (single isomer, unassigned; enantiomer 1)",42

row,Compound,IC50 [nM]
1,CCCc1cc(N2CCCNCC2)nc2sc(C(N)=O)c(N)c12,72
2,CCCc1cc(N2CCC(N(C)C)CC2)nc2sc(C(N)=O)c(N)c12,680
3,CCCc1cc(N2CC[C@@H](N)C2)nc2sc(C(N)=O)c(N)c12,500
4,Cc1cc(-c2ccco2)c2c(N)c(C(N)=O)sc2n1,1100
5,COCCOc1ccnc2sc(C(N)=O)c(N)c12,10800
6,Cc1cc(CO)c2c(N)c(C(N)=O)sc2n1,13500
7,CCCc1cc(C)nc2sc(C(N)=O)c(N)c12,1300
8,CCCc1cc(N2CCNC(=O)C2)nc2sc(C(N)=O)c(N)c12,2000
9,"CCCc1cc(N2CCC(O)C(C)(C)C2)nc2sc(C(N)=O)c(N)c12 (single isomer, unassigned; enantiomer 2)",240
10,Cc1cc(N2CCCC(O)C2)nc2sc(C(N)=O)c(N)c12 (stereo unspecified),2400
11,CCCc1cc(N2CCC(C(N)=O)CC2)nc2sc(C(N)=O)c(N)c12,1300
12,Cc1cc(-c2ccccn2)c2c(N)c(C(N)=O)sc2n1,6000
13,Cc1cc(N2CCC(O)CC2)nc2sc(C(N)=O)c(N)c12,750
14,Cc1cc(N2CCNCC2)nc2sc(C(N)=O)c(N)c12,680
15,CCCc1cc(N2CCCCC(N)C2)nc2sc(C(N)=O)c(N)c12 (stereo unspecified),630
16,Cc1cc(-c2ccc(S(C)(=O)=O)cc2)c2c(N)c(C(N)=O)sc2n1,1300
17,Cc1cc(-c2cc3ccccc3o2)c2c(N)c(C(N)=O)sc2n1,16900
18,CCCOc1ccnc2sc(C(N)=O)c(N)c12,2200
19,Cc1cc(-c2ccc(O)cc2)c2c(N)c(C(N)=O)sc2n1,> 20000
20,CCCc1cc(N2CCCNC(=O)C2)nc2sc(C(N)=O)c(N)c12,140
21,Cc1cc(CC(C)C)c2c(N)c(C(N)=O)sc2n1,2500
22,CCCc1cc(N2CCC(NC)CC2)nc2sc(C(N)=O)c(N)c12,120
23,Cc1cc(N2CCOCC2)nc2sc(C(N)=O)c(N)c12,2500
